Tests used:
Assay type in all cases: in vivo
[1] = system: transplanted Oryza sativa; assay: Test Example 1: effect on crop, application before weed generation in submerged conditions; conditions: Application herbicide amount 320 g/ha; Seventeenth Table
Procedure, shortened: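 Submerged pot test: alluvial soil, 4 cm water, seeds sown mixed, 2.5-leaf rice transplanted; emulsion in water applied to surface day of sowing, dose g/ha; greenhouse 25–30° C.; 3 wk; 0–5 rating.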

[2] = system: directly sowed Oryza sativa; assay: Test Example 3: effect on crop by application to foliage (Wagner pot, water depth 0.1-0.5 cm); conditions: Nineteenth Table; application to foliage; application herbicide amount 320 g/ha
Procedure, shortened: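 Rice-field weeds and directly sown rice were grown 14 days in flooded alluvial soil (water depth 0.1–0.5 cm) at 25–30 °C in a greenhouse. An emulsion formulation diluted to the stated g/ha rate was sprayed onto stems and leaves. Effects were scored on a 0–5 scale (herbicidal ratio bands) three weeks after treatment.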

Stellaria media = assay: Test Example 4: herbicidal effect by application to foliage (diluvial soil, plastic box); conditions: application to foliage, application herbicide amount 320 g/ha
Procedure, shortened: (§1)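 Read-out is a 0–5 visual grade of herbicidal ratio (5: ≥90%, almost withered; 0: ≤5%) taken three weeks after treatment. Compound was applied as a diluted emulsion to stem and leaf parts of 14-day greenhouse-grown plants (25° C. to 30° C.) at rates expressed as g/ha.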

[3] = system: Beta vulgaris ssp. vulgaris; assay: Test Example 4: effect on crop by application to foliage (diluvial soil, plastic box); conditions: application to foliage, application herbicide amount 320 g/ha
Procedure, shortened: as §1

Brassica campestris L. = assay: as above; conditions: application to foliage, application herbicide amount 320 g/ha
Procedure, shortened: as §1

Glycine max = assay: as above; conditions: application to foliage, application herbicide amount 320 g/ha
Procedure, shortened: as §1

Triticum aestivum = assay: as above; conditions: application to foliage, application herbicide amount 320 g/ha
Procedure, shortened: as §1

Zea mays = assay: as above; conditions: application to foliage, application herbicide amount 320 g/ha
Procedure, shortened: as §1

[4] = system: directly sowed Oryza sativa; assay: as above; conditions: application to foliage, application herbicide amount 320 g/ha
Procedure, shortened: as §1

## CCCc1nnc2c(C(=O)Nc3nnnn3C)ccc(C(F)(F)F)n12 [2-019]
[1]
  a: transplanted Oryza sativa (effect on crop grade): 2 (Herbicidal ratio of 20% or more and less than 40%)
[2]
  b (effect on crop grade): 5 (Herbicidal ratio of 90% or more (almost completely withered))
Stellaria media
  P: herbicidal effect on Stellaria media: 5 (Herbicidal ratio of 90% or more (almost completely withered))
[3]
  f: effect on crop, Beta vulgaris ssp. vulgaris: 5 (Herbicidal ratio of 90% or more (almost completely withered))
Brassica campestris L.
  g: effect on crop, Brassica campestris L.: 4 (Herbicidal ratio of 70% or more and less than 90%)
Glycine max
  d: effect on crop, Glycine max: 4 (Herbicidal ratio of 70% or more and less than 90%)
Triticum aestivum
  e: effect on crop, Triticum aestivum: 3 (Herbicidal ratio of 40% or more and less than 70%)
Zea mays
  c: effect on crop, Zea mays: 0 (Herbicidal ratio of 5% or less (almost no effect))
[4]
  b: effect on crop, directly sowed Oryza sativa: 4 (Herbicidal ratio of 70% or more and less than 90%)
